Literature values in patent US7345028B1, “Energy-protective composition comprising adenosine phosphates” (priority 2002, dated 2008).

System: experimental animals
Details: administered prior to and after gamma irradiation

Compound: Nc1ncnc2c1ncn2[C@@H]1O[C@H](COP(=O)(O)OP(=O)(O)O)[C@@H](O)[C@H]1O [adenosine diphosphate]
- protective action against irradiation: protective action
